Like-named read-outs stand apart in the source and are kept apart here. Non-standard residues stand in square brackets, D forms with d. Residues, ends and D or L forms follow the SMILES beside them. β3hE = N[C@@H](CCC(=O)O)CC(=O)O; β3hL = CC(C)C[C@H](N)CC(=O)O; β3hD = NC(CC(=O)O)CC(=O)O
Tests used:
p300/CBP [1] = biological target: p300/CBP; design: method as in ref 2 (a number printed in a supplementary file, which may have a reference list of its own: not looked up in the article's list); conditions: ITC, 68% confidence intervals in brackets; read-out: Direct binding to p300/CBP, KD; cited from earlier work
p300–HIF-1α complex = experiment: NMR competition, p300 with equimolar HIF-1α and CITED2 peptide (1H–15N HSQC); assay type: binding, human; conditions: 13C,15N-p300_330–424, 1.2 eq of each peptide, 10 mM Tris pH 6.9, 50 mM NaCl, 1 mM DTT, 298 K
Method: To investigate the reversibility of the competition, samples containing p300 with equimolar amounts of HIF-1α and CITED2_218–256 or CITED2ΔN were prepared. […] (Table S1, ESI ^†). […]
a = KHIF + KCIT + [HIF]t + [CIT]t − [P]t (16)
b = KHIFKCIT + KHIF([CIT]t − [P]t) + KCIT([HIF]t − [P]t) (17)
KHIF = dissociation constant for Flu-HIF-1α, KCIT = dissociation constant for the competitor CITED2 or variant, [CIT]t = total concentration of the competitor CITED2 or variant, [P]t = total concentration of […]
Fitted parameters were: KHIF, KCIT, [HIF]t, [P]t, rP:HIF, rHIF from which KHIF, rP:HIF, rHIF, [HIF]t were kept constant during fitting. KHIF, rP:HIF, rHIF was determined in a separate experiment using HIF-1α776-826 as a competitor
(Fig. S3) [HIF]t was determined using fluorescence intensity measurements relative to a fluorescein calibration curve. [P]t was kept as a floating parameter to account for incompetent protein fraction.
Anisotropy values were normalized and represented as ligand-bound (Lb) values (Eq. 19.) L = (r − rHIF) ∗ [HIF] (19) […]
into three samples: to the first CITED2224-256 was added, to the second CITED2218-256 was added in 1.2 equivalent relative to p300 concentration, and to the third, same volume of buffer was added, and concentrated down to final sample volume. Concentrations were determined based on UV absorbance at 280 nm for p300 and CITED2 variants and at 205 nm for HIF-1α. […]

p300-HIF-1α complex = biological target: p300-HIF-1α complex; design: method as in ref 2 (a number printed in a supplementary file, which may have a reference list of its own: not looked up in the article's list); conditions: ITC titration against p300-HIF-1α complex, 68% confidence intervals in brackets; read-out: Competition with HIF-1α, KD, apparent; cited from earlier work
[2] = biological target: CBP bound Alexa594-HIF-1α; design: method as in 3 sources, one per row (each row's own in cited_ref): ref 1 (a number printed in a supplementary file, which may have a reference list of its own: not looked up in the article's list) ||| ref 3 (a number printed in a supplementary file, which may have a reference list of its own: not looked up in the article's list) ||| ref 4 (a number printed in a supplementary file, which may have a reference list of its own: not looked up in the article's list); conditions: FA titration against CBP bound Alexa594-HIF-1α; read-out: Competition with HIF-1α, KD, apparent; cited from earlier work
[3] = biological target: CBP bound Alexa594-CITED2; design: method as in 3 sources, one per row (each row's own in cited_ref): ref 1 (a number printed in a supplementary file, which may have a reference list of its own: not looked up in the article's list) ||| ref 3 (a number printed in a supplementary file, which may have a reference list of its own: not looked up in the article's list) ||| ref 4 (a number printed in a supplementary file, which may have a reference list of its own: not looked up in the article's list); conditions: FA titration against CBP bound Alexa594-CITED2; read-out: Direct binding to p300/CBP, KD, apparent; cited from earlier work
p300/CBP [4] = biological target: p300/CBP; design: method as in ref 1 (a number printed in a supplementary file, which may have a reference list of its own: not looked up in the article's list); conditions: bio-layer interferometry; read-out: Direct binding to p300/CBP, KD; cited from earlier work
[5] = biological target: T1, p300_330–420 (TAZ1 domain) (Homo sapiens, UniProt Q09472); experiment: ITC direct titration to p300; assay type: binding; conditions: 5 µM p300_330–420 in cell, 60 µM ligand in syringe, 35 °C, 40 mM Na-phosphate pH 7.5, 100 mM NaCl, 1 mM DTT, global fit with ternary intermediate model, 68% confidence intervals in brackets, read-out: Direct binding to p300, K d
T1 construct: from residues 330-420 (used for FA and ITC experiments); GST (N, cleaved yes); made in house; host or cells: E. coli BL21 pLysS (pGEX-4T-1)

p300–Flu-HIF-1α = biological target: T2, p300–Flu-HIF-1α (Homo sapiens, UniProt Q09472); experiment: Fluorescence anisotropy competition against p300–Flu-HIF-1α; assay type: binding; conditions: 50 nM p300_330–420, 25 nM Flu-HIF-1α786–826 tracer, 40 mM Na-phosphate, 100 mM NaCl, 1 mM DTT, 0.01% Triton-X, pH 7.4, 10 min at 35 °C; fixed KD = 64 nM for tracer; three repeats; read-out: Kd,app FA competition against p300–Flu-HIF-1α
T2 construct: from residues 330-420 (used for FA and ITC experiments); GST (N, cleaved yes); made in house; host or cells: p300: E. coli BL21 pLysS (pGEX-4T-1); tracer peptide: solid-phase synthesis
T2 sequence (Q09472 330-420): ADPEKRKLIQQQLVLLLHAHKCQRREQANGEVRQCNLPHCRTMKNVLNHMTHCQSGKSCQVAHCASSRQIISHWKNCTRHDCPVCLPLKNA

T1 sequence (Q09472 330-420): as above

Q: With “CITED2_224–259: CITED2 residues 224–259, longer C terminus, without N-terminal tail (DEEVLMSLVIEMGLDRIKELPELWLGQNEFDFMTDF; UniProt Q99967 224-259, looked up, fragment)” as the compound, how does the Kd (p300/CBP [1]) read?
A: Its Kd is 9 nM.

Q: What about the “Species observed in sample with equimolar HIF-1α and CITED2 peptide (reversibility of competition)” value (p300–HIF-1α complex) of the same compound?
A: Its value is “did not influence competition efficiency or unidirectionality”.

Q: What about the Kd (p300-HIF-1α complex) of the same compound?
A: Its Kd is 12 nM.

Q: For “CITED2216-246: CITED2 residues 216–246, previously reported (NVIDTDFIDEEVLMSLVIEMGLDRIKELPEL; UniProt Q99967 216-246, looked up, fragment)”, which Kd [2] is on record?
A: The Kd was 210 ± 20 nM.

Q: And the Kd [3]?
A: The Kd was 5000 ± 1000 nM.

Q: For HIF-1α786-826: HIF-1α residues 786–826, which Kd (p300/CBP [1]) is on record?
A: Its Kd is 43 nM.

Q: Which Kd (p300/CBP [1]) does the source give for “CITED2216-248: CITED2 residues 216–248, previously reported (NVIDTDFIDEEVLMSLVIEMGLDRIKELPELWL; UniProt Q99967 216-248, looked up, fragment)” here?
A: The Kd was 303 nM.

Q: What about the Kd (p300-HIF-1α complex) of the same compound?
A: Its Kd is 47 nM.

Q: For “CITED2216-269: CITED2 residues 216–269, previously reported (NVIDTDFIDEEVLMSLVIEMGLDRIKELPELWLGQNEFDFMTDFVCKQQPSRVS; UniProt Q99967 216-269, looked up, fragment)”, which Kd (p300/CBP [4]) is on record?
A: Its Kd is 9 ± 2 nM.

Q: And the Kd (p300/CBP [1])?
A: Its Kd is 26 nM.

Q: And the Kd [2]?
A: The Kd was 0.2 ± 0.1 nM.

Q: And the Kd [3]?
A: Its Kd is 10 ± 1 nM.

Q: What about the Kd (p300-HIF-1α complex) of the same compound?
A: The Kd was 1.1 nM.

Q: Which Kd [5] does the source give for `CC[C@H](C)[C@H](NC(C)=O)C(=O)N[C@@H](CC(=O)O)CC(=O)N[C@H](C(=O)N[C@@H](CC(=O)O)CC(=O)N[C@@H](Cc1ccccc1)C(=O)N[C@H](C(=O)N[C@@H](CC(=O)O)CC(=O)N[C@@H](CCC(=O)O)C(=O)N[C@@H](CCC(=O)O)C(=O)N[C@H](C(=O)N[C@@H](CC(C)C)C(=O)N[C@@H](CCSC)C(=O)N[C@@H](CO)C(=O)N[C@@H](CC(C)C)C(=O)N[C@H](C(=O)N[C@H](C(=O)N[C@@H](CCC(=O)O)C(=O)N[C@@H](CCSC)C(=O)NCC(=O)N[C@@H](CC(C)C)C(=O)N[C@@H](CC(=O)O)C(=O)N[C@@H](CCCNC(=N)N)C(=O)N[C@H](C(=O)N[C@@H](CCCCN)C(=O)N[C@@H](CCC(=O)O)C(=O)N[C@@H](CC(C)C)C(=O)N1CCC[C@H]1C(=O)N[C@@H](CCC(=O)O)C(=O)N[C@@H](CC(C)C)C(=O)N[C@@H](Cc1c[nH]c2ccccc12)C(=O)N[C@@H](CC(C)C)C(=O)NCC(=O)N[C@@H](CCC(N)=O)C(=O)N[C@@H](CC(N)=O)C(=O)N[C@@H](CCC(=O)O)C(=O)N[C@@H](Cc1ccccc1)C(=O)N[C@@H](CC(=O)O)C(=O)N[C@@H](Cc1ccccc1)C(=O)N[C@@H](CCSC)C(N)=O)[C@@H](C)CC)[C@@H](C)CC)C(C)C)C(C)C)[C@@H](C)CC)[C@@H](C)O` [compound 1] (Ac-I[β3hD]T[β3hD]FI[β3hD]EEVLMSLVIEMGLDRIKELPELWLGQNEFDFM-NH2) here?
A: Its Kd is 19 nM.

Q: And the Kd (p300–Flu-HIF-1α)?
A: Its Kd is 9.6 ± 2.4 nM.

Q: Which Kd [5] does the source give for `CC[C@H](C)[C@H](NC(C)=O)C(=O)N[C@@H](CC(=O)O)C(=O)N[C@H](C(=O)N[C@@H](CC(=O)O)C(=O)N[C@@H](Cc1ccccc1)C(=O)N[C@H](C(=O)N[C@@H](CC(=O)O)C(=O)N[C@@H](CCC(=O)O)C(=O)N[C@@H](CCC(=O)O)C(=O)N[C@H](C(=O)N[C@@H](CC(C)C)C(=O)N[C@@H](CCSC)C(=O)N[C@@H](CO)C(=O)N[C@@H](CC(C)C)C(=O)N[C@H](C(=O)N[C@H](C(=O)N[C@@H](CCC(=O)O)C(=O)N[C@@H](CCSC)C(=O)NCC(=O)N[C@@H](CC(C)C)C(=O)N[C@@H](CC(=O)O)CC(=O)N[C@@H](CCCNC(=N)N)C(=O)N[C@H](C(=O)N[C@@H](CCC(=O)O)CC(=O)N[C@@H](CC(C)C)C(=O)N1CCC[C@H]1C(=O)N[C@@H](CCC(=O)O)C(=O)N[C@@H](CC(C)C)C(=O)N[C@@H](Cc1c[nH]c2ccccc12)C(=O)N[C@H](CC(=O)NCC(=O)N[C@@H](CCC(N)=O)C(=O)N[C@@H](CC(N)=O)C(=O)N[C@@H](CCC(=O)O)C(=O)N[C@@H](Cc1ccccc1)C(=O)N[C@@H](CC(=O)O)C(=O)N[C@@H](Cc1ccccc1)C(=O)N[C@@H](CCSC)C(N)=O)CC(C)C)[C@@H](C)CC)[C@@H](C)CC)C(C)C)C(C)C)[C@@H](C)CC)[C@@H](C)O` [3b] (Ac-IDTDFIDEEVLMSLVIEMGL[β3hD]RI[β3hE]LPELW[β3hL]GQNEFDFM-NH2) here?
A: The Kd was 98 nM.

Q: And the Kd (p300–Flu-HIF-1α)?
A: Its Kd is 112 ± 13 nM.

— paper PMC11289882, “Site-directed allostery perturbation to probe the negative regulation of hypoxia inducible factor-1α” (RSC Chemical Biology, 2024)
